{"source": "paper PMC9516332", "about": "(Frontiers in Oncology, 2022)", "assay_in_all_cases": "Kinase panel profiling at 1 µmol/L (MSA or IMAP), percentage inhibition", "format_in_all_cases": "biochemical", "key": {"[1]": {"target": "panel of 255 wild-type kinases (Homo sapiens, UniProt P06213)", "conditions": "kinase INSR; 1 µmol/L single concentration; read-out: %-inhibition at 1 µmol/L, INSR"}, "[2]": {"target": "panel of 255 wild-type kinases (Homo sapiens, UniProt P08581)", "sequence (P08581 25-1390)": "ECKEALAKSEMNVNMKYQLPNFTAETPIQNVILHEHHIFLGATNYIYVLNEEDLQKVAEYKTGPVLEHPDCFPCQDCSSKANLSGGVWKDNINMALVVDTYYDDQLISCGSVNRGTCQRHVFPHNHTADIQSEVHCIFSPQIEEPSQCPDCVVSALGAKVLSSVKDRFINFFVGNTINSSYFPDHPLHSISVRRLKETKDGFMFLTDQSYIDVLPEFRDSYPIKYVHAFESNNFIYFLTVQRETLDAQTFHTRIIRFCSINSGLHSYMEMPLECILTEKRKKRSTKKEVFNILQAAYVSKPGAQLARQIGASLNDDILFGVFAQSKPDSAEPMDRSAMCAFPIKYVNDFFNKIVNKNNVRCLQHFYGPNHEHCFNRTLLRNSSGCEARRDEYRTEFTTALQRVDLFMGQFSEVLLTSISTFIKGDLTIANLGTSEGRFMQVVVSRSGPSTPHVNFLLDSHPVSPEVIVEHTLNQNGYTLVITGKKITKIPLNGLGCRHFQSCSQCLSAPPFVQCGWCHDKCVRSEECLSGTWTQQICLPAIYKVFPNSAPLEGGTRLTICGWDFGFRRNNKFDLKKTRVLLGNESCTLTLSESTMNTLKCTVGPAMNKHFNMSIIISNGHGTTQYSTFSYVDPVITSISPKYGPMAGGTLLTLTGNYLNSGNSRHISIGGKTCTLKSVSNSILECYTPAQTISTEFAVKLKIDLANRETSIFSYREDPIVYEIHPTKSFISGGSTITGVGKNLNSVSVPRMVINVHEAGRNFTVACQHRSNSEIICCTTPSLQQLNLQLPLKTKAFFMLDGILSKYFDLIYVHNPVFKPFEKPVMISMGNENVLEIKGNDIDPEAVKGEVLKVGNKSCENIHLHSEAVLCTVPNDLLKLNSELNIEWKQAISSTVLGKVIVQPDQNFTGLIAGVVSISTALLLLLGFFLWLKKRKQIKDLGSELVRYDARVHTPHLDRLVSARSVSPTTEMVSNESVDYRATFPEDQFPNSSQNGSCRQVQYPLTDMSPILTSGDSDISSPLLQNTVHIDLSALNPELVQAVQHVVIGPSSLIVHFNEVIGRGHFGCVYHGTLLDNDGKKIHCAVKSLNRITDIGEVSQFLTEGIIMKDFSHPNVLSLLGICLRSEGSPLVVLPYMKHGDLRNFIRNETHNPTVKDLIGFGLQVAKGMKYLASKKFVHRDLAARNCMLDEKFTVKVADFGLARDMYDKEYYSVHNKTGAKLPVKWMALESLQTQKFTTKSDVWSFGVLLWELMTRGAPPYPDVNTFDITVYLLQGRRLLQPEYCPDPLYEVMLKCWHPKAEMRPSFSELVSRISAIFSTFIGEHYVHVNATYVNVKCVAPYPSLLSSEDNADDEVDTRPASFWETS", "conditions": "MET; 1 µmol/L single concentration"}, "[3]": {"target": "T1, panel of 255 wild-type kinases (Homo sapiens, UniProt P43403)", "T1 sequence (P43403 1-619)": "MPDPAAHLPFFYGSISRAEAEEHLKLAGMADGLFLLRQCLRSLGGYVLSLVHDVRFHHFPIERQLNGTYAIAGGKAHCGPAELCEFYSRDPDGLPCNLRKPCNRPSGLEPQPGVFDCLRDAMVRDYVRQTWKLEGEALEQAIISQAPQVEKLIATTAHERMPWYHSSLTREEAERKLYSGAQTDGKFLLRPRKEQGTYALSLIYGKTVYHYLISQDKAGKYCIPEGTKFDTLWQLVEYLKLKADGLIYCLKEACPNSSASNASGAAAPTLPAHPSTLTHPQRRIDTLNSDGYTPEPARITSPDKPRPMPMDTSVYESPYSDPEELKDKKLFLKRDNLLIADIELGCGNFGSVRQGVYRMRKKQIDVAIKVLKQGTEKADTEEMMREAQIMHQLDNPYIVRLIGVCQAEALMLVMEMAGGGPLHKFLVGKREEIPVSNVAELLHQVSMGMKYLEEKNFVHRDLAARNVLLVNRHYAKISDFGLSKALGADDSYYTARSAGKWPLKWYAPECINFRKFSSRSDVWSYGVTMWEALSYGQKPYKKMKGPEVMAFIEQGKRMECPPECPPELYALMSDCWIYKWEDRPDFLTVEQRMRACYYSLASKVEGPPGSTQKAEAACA", "conditions": "kinase ZAP70; 1 µmol/L single concentration; read-out: %-inhibition at 1 µmol/L, ZAP70"}, "[4]": {"target": "panel of 255 wild-type kinases (Homo sapiens, UniProt P49841)", "sequence (P49841 whole entry)": "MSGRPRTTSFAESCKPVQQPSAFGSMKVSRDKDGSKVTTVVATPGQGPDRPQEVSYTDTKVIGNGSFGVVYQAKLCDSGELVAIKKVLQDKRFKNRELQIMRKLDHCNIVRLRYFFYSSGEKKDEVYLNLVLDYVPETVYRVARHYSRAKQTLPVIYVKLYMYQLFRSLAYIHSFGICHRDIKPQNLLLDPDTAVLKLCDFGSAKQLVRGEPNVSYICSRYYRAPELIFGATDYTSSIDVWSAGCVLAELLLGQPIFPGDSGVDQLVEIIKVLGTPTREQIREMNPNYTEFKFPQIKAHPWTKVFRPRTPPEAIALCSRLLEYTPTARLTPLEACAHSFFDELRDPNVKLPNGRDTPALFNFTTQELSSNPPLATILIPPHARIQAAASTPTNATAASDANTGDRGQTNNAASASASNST", "conditions": "kinase GSK3β; 1 µmol/L single concentration"}, "[5]": {"target": "T2, panel of 255 wild-type kinases (Homo sapiens, UniProt P53778)", "T2 sequence (P53778 1-367)": "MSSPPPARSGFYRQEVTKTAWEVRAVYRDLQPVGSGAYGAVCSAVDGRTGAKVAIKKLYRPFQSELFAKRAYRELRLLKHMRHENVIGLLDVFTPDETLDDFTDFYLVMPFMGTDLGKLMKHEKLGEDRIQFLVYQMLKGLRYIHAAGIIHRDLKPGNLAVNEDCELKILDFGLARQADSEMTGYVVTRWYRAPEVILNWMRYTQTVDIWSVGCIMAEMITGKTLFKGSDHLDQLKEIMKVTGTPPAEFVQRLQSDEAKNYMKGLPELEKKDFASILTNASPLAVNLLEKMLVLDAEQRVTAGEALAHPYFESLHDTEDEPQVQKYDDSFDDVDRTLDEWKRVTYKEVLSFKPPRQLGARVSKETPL", "conditions": "p38γ; 1 µmol/L single concentration; read-out: %-inhibition, p38γ"}, "[6]": {"target": "T3, panel of 255 wild-type kinases (Homo sapiens, UniProt Q96PY6)", "T3 sequence (Q96PY6 1-1258)": "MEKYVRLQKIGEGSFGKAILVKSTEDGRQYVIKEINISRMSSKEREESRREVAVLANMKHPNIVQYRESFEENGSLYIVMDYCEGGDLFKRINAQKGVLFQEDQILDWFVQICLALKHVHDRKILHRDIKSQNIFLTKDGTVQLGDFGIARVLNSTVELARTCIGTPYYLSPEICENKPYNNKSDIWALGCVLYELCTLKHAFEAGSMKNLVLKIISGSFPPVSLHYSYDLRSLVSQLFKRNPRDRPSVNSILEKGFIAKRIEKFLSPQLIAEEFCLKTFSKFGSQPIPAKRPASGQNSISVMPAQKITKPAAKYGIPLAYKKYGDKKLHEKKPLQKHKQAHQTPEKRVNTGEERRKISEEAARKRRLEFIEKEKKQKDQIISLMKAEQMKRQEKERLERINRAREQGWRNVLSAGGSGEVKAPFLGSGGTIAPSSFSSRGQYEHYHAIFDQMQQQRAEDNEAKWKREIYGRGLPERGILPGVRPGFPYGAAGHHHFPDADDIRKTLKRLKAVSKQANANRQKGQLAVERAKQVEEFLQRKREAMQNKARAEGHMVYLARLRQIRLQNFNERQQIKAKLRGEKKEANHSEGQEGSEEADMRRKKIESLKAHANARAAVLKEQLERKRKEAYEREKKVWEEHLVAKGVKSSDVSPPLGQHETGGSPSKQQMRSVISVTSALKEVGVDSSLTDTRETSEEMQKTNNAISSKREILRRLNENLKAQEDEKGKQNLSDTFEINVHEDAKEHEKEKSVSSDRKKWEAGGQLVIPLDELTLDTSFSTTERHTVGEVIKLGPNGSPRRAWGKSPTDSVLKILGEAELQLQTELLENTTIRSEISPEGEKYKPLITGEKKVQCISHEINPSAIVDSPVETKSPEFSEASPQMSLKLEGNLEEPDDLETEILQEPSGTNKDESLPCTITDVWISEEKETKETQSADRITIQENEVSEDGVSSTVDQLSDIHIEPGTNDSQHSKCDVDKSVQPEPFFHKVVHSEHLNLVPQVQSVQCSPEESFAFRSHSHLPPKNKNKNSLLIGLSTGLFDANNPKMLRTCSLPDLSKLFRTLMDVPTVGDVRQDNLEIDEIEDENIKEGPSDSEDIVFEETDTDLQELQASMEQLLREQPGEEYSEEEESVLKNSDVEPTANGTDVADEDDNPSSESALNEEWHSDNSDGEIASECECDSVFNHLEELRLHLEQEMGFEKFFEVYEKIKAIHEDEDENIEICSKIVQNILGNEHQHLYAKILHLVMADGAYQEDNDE", "conditions": "NEK1; 1 µmol/L single concentration; read-out: %-inhibition, NEK1"}, "[7]": {"target": "panel of 255 wild-type kinases (Homo sapiens, UniProt Q9NYY3)", "sequence (Q9NYY3 whole entry)": "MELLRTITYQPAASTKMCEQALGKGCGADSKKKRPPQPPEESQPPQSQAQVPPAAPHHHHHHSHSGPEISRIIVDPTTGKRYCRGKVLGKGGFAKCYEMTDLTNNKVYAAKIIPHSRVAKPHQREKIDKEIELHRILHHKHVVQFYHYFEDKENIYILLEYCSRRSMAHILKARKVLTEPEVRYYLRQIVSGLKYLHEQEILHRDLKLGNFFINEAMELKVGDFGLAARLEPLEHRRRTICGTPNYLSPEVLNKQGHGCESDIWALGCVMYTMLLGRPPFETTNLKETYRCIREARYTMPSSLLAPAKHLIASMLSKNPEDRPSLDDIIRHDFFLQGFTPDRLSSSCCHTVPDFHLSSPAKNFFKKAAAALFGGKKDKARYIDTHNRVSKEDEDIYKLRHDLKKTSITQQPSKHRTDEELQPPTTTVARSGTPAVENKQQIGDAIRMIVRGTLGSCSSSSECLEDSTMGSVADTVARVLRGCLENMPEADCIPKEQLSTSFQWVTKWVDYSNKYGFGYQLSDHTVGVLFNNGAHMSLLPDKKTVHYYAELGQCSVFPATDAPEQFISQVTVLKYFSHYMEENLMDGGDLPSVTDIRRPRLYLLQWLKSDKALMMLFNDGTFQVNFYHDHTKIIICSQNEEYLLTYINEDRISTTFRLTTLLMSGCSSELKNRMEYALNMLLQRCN", "conditions": "kinase PLK2; 1 µmol/L single concentration; read-out: %-inhibition at 1 µmol/L, PLK2"}, "[8]": {"target": "panel of 255 wild-type kinases (Homo sapiens, UniProt Q9P1W9)", "sequence (Q9P1W9 whole entry)": "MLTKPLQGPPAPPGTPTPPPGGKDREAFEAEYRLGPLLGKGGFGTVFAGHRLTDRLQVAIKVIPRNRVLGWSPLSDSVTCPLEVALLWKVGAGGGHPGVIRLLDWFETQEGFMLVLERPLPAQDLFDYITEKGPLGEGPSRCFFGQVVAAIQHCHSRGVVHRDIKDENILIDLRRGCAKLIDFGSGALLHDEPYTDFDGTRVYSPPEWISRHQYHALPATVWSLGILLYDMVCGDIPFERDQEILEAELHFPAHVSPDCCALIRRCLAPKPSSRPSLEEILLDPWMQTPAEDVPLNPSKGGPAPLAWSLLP", "conditions": "kinase PIM2; 1 µmol/L single concentration; read-out: %-inhibition at 1 µmol/L, PIM2"}, "[9]": {"target": "panel of 255 wild-type kinases (Homo sapiens, UniProt Q9UM73)", "sequence (Q9UM73 19-1620)": "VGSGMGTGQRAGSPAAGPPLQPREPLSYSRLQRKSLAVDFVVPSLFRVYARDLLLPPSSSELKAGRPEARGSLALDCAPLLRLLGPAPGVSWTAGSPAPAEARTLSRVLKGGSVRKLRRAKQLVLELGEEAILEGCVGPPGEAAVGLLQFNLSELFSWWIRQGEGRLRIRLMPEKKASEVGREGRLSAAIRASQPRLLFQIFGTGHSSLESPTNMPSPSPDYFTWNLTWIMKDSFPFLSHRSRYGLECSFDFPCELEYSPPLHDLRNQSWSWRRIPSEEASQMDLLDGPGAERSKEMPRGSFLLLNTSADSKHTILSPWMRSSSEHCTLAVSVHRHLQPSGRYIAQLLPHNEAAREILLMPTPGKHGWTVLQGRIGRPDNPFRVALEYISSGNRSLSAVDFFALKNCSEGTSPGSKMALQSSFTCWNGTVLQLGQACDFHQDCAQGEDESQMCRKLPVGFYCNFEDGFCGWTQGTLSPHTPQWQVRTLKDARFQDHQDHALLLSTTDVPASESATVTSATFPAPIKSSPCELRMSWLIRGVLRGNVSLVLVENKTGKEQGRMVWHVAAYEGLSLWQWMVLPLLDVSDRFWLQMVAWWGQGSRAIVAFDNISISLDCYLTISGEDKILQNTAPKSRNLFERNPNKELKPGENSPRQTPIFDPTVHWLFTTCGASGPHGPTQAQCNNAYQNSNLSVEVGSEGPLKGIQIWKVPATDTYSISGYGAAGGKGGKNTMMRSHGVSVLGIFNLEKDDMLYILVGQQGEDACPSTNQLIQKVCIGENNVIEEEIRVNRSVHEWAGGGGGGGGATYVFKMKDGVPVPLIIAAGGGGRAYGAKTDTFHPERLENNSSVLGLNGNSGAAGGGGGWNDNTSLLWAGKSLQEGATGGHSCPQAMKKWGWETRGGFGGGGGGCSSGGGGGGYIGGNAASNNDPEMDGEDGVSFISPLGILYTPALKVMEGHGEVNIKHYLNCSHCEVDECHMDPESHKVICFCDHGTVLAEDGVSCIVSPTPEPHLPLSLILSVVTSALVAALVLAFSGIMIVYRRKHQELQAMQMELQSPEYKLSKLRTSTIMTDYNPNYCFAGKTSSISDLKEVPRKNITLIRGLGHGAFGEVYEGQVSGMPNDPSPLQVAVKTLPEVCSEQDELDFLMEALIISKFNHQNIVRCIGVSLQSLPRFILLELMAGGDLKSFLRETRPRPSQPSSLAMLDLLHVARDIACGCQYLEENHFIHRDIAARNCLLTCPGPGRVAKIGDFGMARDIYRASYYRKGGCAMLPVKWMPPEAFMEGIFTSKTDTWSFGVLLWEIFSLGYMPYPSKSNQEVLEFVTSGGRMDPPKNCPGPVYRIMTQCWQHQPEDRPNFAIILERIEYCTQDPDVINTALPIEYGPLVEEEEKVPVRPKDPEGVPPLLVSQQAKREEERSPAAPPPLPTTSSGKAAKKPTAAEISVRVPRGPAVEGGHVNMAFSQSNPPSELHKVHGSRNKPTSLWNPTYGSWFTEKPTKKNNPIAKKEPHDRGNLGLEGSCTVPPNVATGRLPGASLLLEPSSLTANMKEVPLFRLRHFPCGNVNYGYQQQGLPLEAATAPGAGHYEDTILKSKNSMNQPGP", "conditions": "ALK kinase assay; 1 µmol/L single concentration; read-out: %-inhibition ALK"}}, "data": [{"smiles": "COC(=O)N[C@@H](C)CNc1nccc(-c2cn(C(C)C)nc2-c2cc(Cl)cc(NS(C)(=O)=O)c2F)n1", "note": "[encorafenib]", "values": [{"measurement": "inhibition at 1 µM", "setting": "[1]", "result": 9, "unit": "%"}, {"measurement": "inhibition at 1 µM", "setting": "[2]", "result": 2.82, "unit": "%"}, {"measurement": "inhibition at 1 µM", "setting": "[3]", "result": 0.195, "unit": "%"}, {"measurement": "inhibition at 1 µM", "setting": "[4]", "result": 92, "unit": "%"}, {"measurement": "inhibition at 1 µM", "setting": "[5]", "result": 3.2, "unit": "%"}, {"measurement": "inhibition at 1 µM", "setting": "[6]", "result": 2.84, "unit": "%"}, {"measurement": "inhibition at 1 µM", "setting": "[7]", "result": -2.68, "unit": "%"}, {"measurement": "inhibition at 1 µM", "setting": "[8]", "result": -1.43, "unit": "%"}, {"measurement": "inhibition at 1 µM", "setting": "[9]", "result": 8, "unit": "%"}]}, {"smiles": "CCc1nc(C(N)=O)c(Nc2ccc(N3CCC(N4CCN(C)CC4)CC3)c(OC)c2)nc1NC1CCOCC1", "note": "[gilteritinib]", "values": [{"measurement": "inhibition at 1 µM", "setting": "[1]", "result": 100, "unit": "%"}, {"measurement": "inhibition at 1 µM", "setting": "[2]", "result": 90, "unit": "%"}, {"measurement": "inhibition at 1 µM", "setting": "[3]", "result": 46, "unit": "%"}, {"measurement": "inhibition at 1 µM", "setting": "[4]", "result": 4, "unit": "%"}, {"measurement": "inhibition at 1 µM", "setting": "[5]", "result": -0.507, "unit": "%"}, {"measurement": "inhibition at 1 µM", "setting": "[6]", "result": 5.59, "unit": "%"}, {"measurement": "inhibition at 1 µM", "setting": "[7]", "result": 4.71, "unit": "%"}, {"measurement": "inhibition at 1 µM", "setting": "[8]", "result": -1.37, "unit": "%"}, {"measurement": "inhibition at 1 µM", "setting": "[9]", "result": 101, "unit": "%"}]}, {"smiles": "CN1CCN(c2ccc(C(=O)Nc3n[nH]c4ccc(Cc5cc(F)cc(F)c5)cc34)c(NC3CCOCC3)c2)CC1", "note": "[entrectinib]", "values": [{"measurement": "inhibition at 1 µM", "setting": "[1]", "result": 94, "unit": "%"}, {"measurement": "inhibition at 1 µM", "setting": "[2]", "result": 24, "unit": "%"}, {"measurement": "inhibition at 1 µM", "setting": "[3]", "result": 2.19, "unit": "%"}, {"measurement": "inhibition at 1 µM", "setting": "[4]", "result": -1.6, "unit": "%"}, {"measurement": "inhibition at 1 µM", "setting": "[5]", "result": -3, "unit": "%"}, {"measurement": "inhibition at 1 µM", "setting": "[6]", "result": -3.78, "unit": "%"}, {"measurement": "inhibition at 1 µM", "setting": "[7]", "result": 14, "unit": "%"}, {"measurement": "inhibition at 1 µM", "setting": "[8]", "result": -7.56, "unit": "%"}, {"measurement": "inhibition at 1 µM", "setting": "[9]", "result": 100, "unit": "%"}]}, {"smiles": "COc1cc2ncnc(Nc3ccc(F)c(Cl)c3)c2cc1NC(=O)/C=C/CN1CCCCC1", "note": "[dacomitinib]", "values": [{"measurement": "inhibition at 1 µM", "setting": "[1]", "result": 1.81, "unit": "%"}, {"measurement": "inhibition at 1 µM", "setting": "[2]", "result": 24, "unit": "%"}, {"measurement": "inhibition at 1 µM", "setting": "[3]", "result": -4, "unit": "%"}, {"measurement": "inhibition at 1 µM", "setting": "[4]", "result": 11, "unit": "%"}, {"measurement": "inhibition at 1 µM", "setting": "[5]", "result": 0.231, "unit": "%"}, {"measurement": "inhibition at 1 µM", "setting": "[6]", "result": 0.762, "unit": "%"}, {"measurement": "inhibition at 1 µM", "setting": "[7]", "result": 5, "unit": "%"}, {"measurement": "inhibition at 1 µM", "setting": "[8]", "result": -3, "unit": "%"}, {"measurement": "inhibition at 1 µM", "setting": "[9]", "result": 17, "unit": "%"}]}, {"smiles": "Cn1cc(-c2cc3c(N4CCN(c5ncc([C@@](C)(N)c6ccc(F)cc6)cn5)CC4)ncnn3c2)cn1", "note": "[avapritinib]", "values": [{"measurement": "inhibition at 1 µM", "setting": "[1]", "result": 4.71, "unit": "%"}, {"measurement": "inhibition at 1 µM", "setting": "[2]", "result": 16, "unit": "%"}, {"measurement": "inhibition at 1 µM", "setting": "[3]", "result": 13, "unit": "%"}, {"measurement": "inhibition at 1 µM", "setting": "[4]", "result": -5.32, "unit": "%"}, {"measurement": "inhibition at 1 µM", "setting": "[5]", "result": -0.867, "unit": "%"}, {"measurement": "inhibition at 1 µM", "setting": "[6]", "result": 56, "unit": "%"}, {"measurement": "inhibition at 1 µM", "setting": "[7]", "result": 7, "unit": "%"}, {"measurement": "inhibition at 1 µM", "setting": "[8]", "result": -2.22, "unit": "%"}, {"measurement": "inhibition at 1 µM", "setting": "[9]", "result": 35, "unit": "%"}]}, {"smiles": "CCn1c(=O)c(-c2cc(NC(=O)Nc3ccccc3)c(F)cc2Br)cc2cnc(NC)cc21", "note": "[ripretinib]", "values": [{"measurement": "inhibition at 1 µM", "setting": "[1]", "result": 1.55, "unit": "%"}, {"measurement": "inhibition at 1 µM", "setting": "[2]", "result": 8, "unit": "%"}, {"measurement": "inhibition at 1 µM", "setting": "[3]", "result": -8, "unit": "%"}, {"measurement": "inhibition at 1 µM", "setting": "[4]", "result": -0.349, "unit": "%"}, {"measurement": "inhibition at 1 µM", "setting": "[5]", "result": 0.893, "unit": "%"}, {"measurement": "inhibition at 1 µM", "setting": "[6]", "result": -1.3, "unit": "%"}, {"measurement": "inhibition at 1 µM", "setting": "[7]", "result": 6, "unit": "%"}, {"measurement": "inhibition at 1 µM", "setting": "[8]", "result": -3, "unit": "%"}, {"measurement": "inhibition at 1 µM", "setting": "[9]", "result": 2.68, "unit": "%"}]}]}
